# Literature values in patent US20110319370A1, “Combination Hormone Therapy for the Eye” (DUQUESNE UNIVERSITY OF THE, priority 2010, published 2011).
# Assays:
# [1] = tested on: newborn rats treated with buthionine sulfoximine (BSO); conditions: cataracts develop by age 16 days, reduced from 100% without melatonin
compound,measurement,setting,value
COc1ccc2[nH]cc(CCNC(C)=O)c2c1 [Melatonin],cataract incidence,[1],6.2%
same,solubility in aqueous media,aqueous media,2.4 mg/mL
same,solubility in organic solvents,organic solvents,140.5 mg/mL
